A short description of this series: Storage of concentrated MB-102 salt solution at 4° C. (precipitation). It is filed as physicochemical. The note with it: 64.2 wt % solution in water, 4° C. for 7 days. As for the experimental part: MB-102 (0.300 g, 0.81 mmol), was placed in a vial (4.0 mL). Water was added (0.8 mL, D.I.) and the mixture sonicated for a brief period of time. To the mixture was added aqueous 6.25 N NaOH (2 equivalents, 1.62 mmol, 0.24 mL, added in portions; 0.020 mL×12 to effect solution) with stirring and brief periods of sonication. […] The final concentration was 300 mg (2R,2′R)-2,2′-((3,6-diaminopyrazine-2,5-dicarbonyl)bis(azanediyl))bis(3-hydroxypropanoic acid), MB-102 per mL water (w/v).
MB-102 (0.30 g, 0.81 mmol) was weighed into a 5 mL v-vial equipped with a Teflon-covered magnetic spin vane. Choline hydroxide in water (Aldrich, 0.43 g of 46 wt %, 1.62 mmol) was added portion-wise with stirring until a solution was obtained. The total weight of the solution was 0.73 g or 64.2 wt % MB-102 di-choline salt (MW: 578.6).

Each structure is given as a SMILES string.

With `C[N+](C)(C)CCO.C[N+](C)(C)CCO.Nc1nc(C(=O)NC(CO)C(=O)[O-])c(N)nc1C(=O)NC(CO)C(=O)[O-]` (stereo not shown) [MB-102 di-choline salt], the precipitation on storage result is on record as “no precipitation”.

These data come from patent US20220143222A1, “SUBCUTANEOUS AND INTRAMUSCULAR ADMINISTRATION OF PYRAZINE COMPOUNDS” (MediBeacon Inc., priority 2020, published 2022).
